Test results from patent US11207312B2, “Metallo-beta-lactamase inhibitors and methods of use thereof” (priority 2017, dated 2021).

Key:
[1] = test system: Klebsiella pneumoniae expressing VIM-1 (IHMA599644); format: cell-based; settings: with imipenem 1 μg/ml; 95% inhibition of bacterial growth
Experimental: (§1) The bacterial strains tested included the clinical strains Escherichia coil expressing NDM-1 (CLB30005, CLB30016), Serratia marcescens expressing IMP-1 (CL5741), and Klebsiella pneumoniae expressing VIM-1 (H-LMA599644). Inhibitor activity was measured in the presence and absence of imipenem in a 384-well microplate.
(§2) The clinical strains CLB30016, CL5741 and IHMA599644 were grown on trypticase soy agar containing 5% sheep's blood. The bacteria on agar plates were incubated at 35° C. with humidity overnight. The following day, individual colonies from each clinical strain were picked and resuspended in 5 ml saline to attain an OD600 of […], for CLB30016, C15741 and IHMA599644, respectively. These were further diluted 1:100 into 1.1× CAMHB and used to inoculate the test wells as described below.
(§3) Imipenem in 10 mM 3-(N-morpholino)propanesulfonic acid (MOPS, pH 7) was stored in single use aliquots at −80° C. […] On the day of the assay, 4 μl of antibiotic was added to 45 μl of bacteria followed by 1 μl of test compound and mixed by pipetting and with an orbital shaker. The concentration of antibiotic used in the assay was 1 μg/ml. Microplates were covered and incubated at 35° C. for 22 hours to 24 hours. At the end of the incubation, absorbance was determined using a spectrophotometer. The synergistic concentration of MBLI was determined by identifying the lowest concentration of test compound in the presence of a given concentration of antibiotic that was required to inhibit 95% of the growth of the bacteria. The results for Examples 1-209 are reported in Table 1, expressed as the concentration of compound that potentiated the action of antibiotic (imipenem) affecting 95% inhibition of bacterial growth (MITC95).

[2] = test system: Escherichia coli expressing NDM-1 (CLB30016); format: cell-based; settings: with imipenem 1 μg/ml; 95% inhibition of bacterial growth
Experimental: as §1, §2, §3

[3] = test system: Serratia marcescens expressing IMP-1 (CL5741); format: cell-based; settings: with imipenem 1 μg/ml; 95% inhibition of bacterial growth
Experimental: as §1, §2, §3

NDM-1 = NDM-1 (Klebsiella pneumoniae, UniProt C7C422); assay: biochemical; format: biochemical; settings: CCF2-FA fluorescence assay, 2 hours at 25° C.
Sequence of NDM-1 (C7C422 whole entry, looked up, species assumed): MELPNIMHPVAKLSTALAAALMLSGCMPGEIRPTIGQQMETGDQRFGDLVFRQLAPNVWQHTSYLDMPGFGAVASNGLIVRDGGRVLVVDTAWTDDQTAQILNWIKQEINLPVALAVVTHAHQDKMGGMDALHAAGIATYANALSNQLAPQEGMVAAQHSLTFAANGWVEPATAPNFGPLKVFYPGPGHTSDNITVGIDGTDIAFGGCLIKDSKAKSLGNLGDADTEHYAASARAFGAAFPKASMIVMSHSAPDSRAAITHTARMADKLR
Experimental: (§4) The Class B enzyme activities were measured in the presence of the test inhibitor in a fluorescence assay against a commercially available substrate consisting of a cephalosporin core linking 7-hydroxycoumarin to fluorescein (CCF2-FA). The enzyme (NDM-1, IMP-1 or VIM-1) and the substrate were diluted in 100 mM KH2PO4 buffer (pH 7) containing 0.005% Tween-20 and 10 μM ZnSO4. In the assay, the final concentration of enzyme was 1 pM, 2 pM and 30 pM for NDM-1, IMP-1 and VIM-1, respectively, and the final concentration of CCF2-FA was 1.25 μM. The test inhibitor was dissolved in dimethylsulfoxide and diluted 1:50 in the assay, resulting in a final concentration range of 20 μM to 0.00063 μM. In a 384-well microplate, the test inhibitor was incubated with the metallo-β-lactamase enzyme and the substrate for 2 hours at 25° C. Fluorescence at 460 nm following excitation at 405 nm was measured. The IC50 value was determined from semi-logarithmic plots of enzyme inhibition versus inhibitor concentration, with a curve generated using a 4-parameter fit.

[4] = test system: P. aeruginosa MB9799 (efflux-, IMP-1 plasmid); format: cell-based, Pseudomonas aeruginosa; settings: efflux − (MB9799) strain; imipenem at 2 μg/mL; in the presence of a class A, C, D serine β-lactamase inhibitor closely related to relebactam
Description: (§5) The strain background is Pseudomonas aeruginosa PAO1. A wild-type (M135919) and an isogenic strain in which multiple efflux pumps have been disrupted genetically were used. The MBL IMP-1, obtained from a clinical isolate was introduced into the strain pair by the following process:
(§6) The plasmid DNA was transformed into parental MB5919 (oprD+, efflux+, inducible AmpC) and MB5890 (oprD+, efflux−, inducible AmpC) isogenic strains by electroporation.
(§7) The strain set was then used as a pair to determine the effect of metallo-β-lactamase inhibitors of Formula I on the MIC of imipenem and/or ceftazidime. A fixed concentration of antibiotic is included in standard microbroth MIC tests, usually at the CLSI breakpoint concentration, A fixed amount of a class A/C beta-lactamase inhibitor is also included to inhibit the resident Pseudomonas AmpC enzyme. A serial titration of the metallo-β-lactamase inhibitor was included and the concentration of metallo-β-lactamase inhibitor which restores susceptibility of the strain to the included antibiotic was recorded. That concentration of metallo-β-lactamase inhibitor was then compared between the two strains to determine the fold difference between the efflux+(MB9798) and efflux−(MI39799) strains, which indicates the extent to which the MBLi is subject to efflux.

IMP-1 = IMP-1 (Serratia marcescens, UniProt P52699); assay: biochemical; settings: CCF2-FA fluorescence assay, 2 hours at 25° C.; read-out: IMP1 IC50
Sequence of IMP-1 (P52699 whole entry, looked up, species assumed): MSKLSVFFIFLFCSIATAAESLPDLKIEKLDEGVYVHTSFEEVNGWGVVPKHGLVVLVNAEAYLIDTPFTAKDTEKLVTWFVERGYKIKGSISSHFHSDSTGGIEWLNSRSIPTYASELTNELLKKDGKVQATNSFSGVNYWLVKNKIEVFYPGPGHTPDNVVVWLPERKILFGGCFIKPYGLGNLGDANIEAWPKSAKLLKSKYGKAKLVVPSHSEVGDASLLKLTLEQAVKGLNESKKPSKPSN
Experimental: as §4

VIM-1 = VIM-1 (Pseudomonas aeruginosa (strain ATCC 15692 / DSM 22644 / CIP 104116 / JCM 14847 / LMG 12228 / 1C / PRS 101 / PAO1), UniProt A0A0F7KYQ8); assay: biochemical; settings: CCF2-FA fluorescence assay, 2 hours at 25° C.; read-out: VIM1 IC50
Experimental: as §4

VIM-2 = VIM-2 (Escherichia coli, UniProt Q5U7L7); assay: biochemical; settings: CCF2-FA fluorescence assay; read-out: VIM2 IC50
[5] = test system: P. aeruginosa MB9798 (efflux+, IMP-1 plasmid); settings: for MB9798 MITC95 P. aeruginosa uM Efflux WT: efflux + (MB9798) strain, imipenem at 2 μg/mL, in the presence of a class A, C, D serine β-lactamase inhibitor closely related to relebactam; for Efflux ratio: fold difference between efflux+ (MB9798) and efflux− (MB9799) strains
Description: as §5, §6, §7

Row | SMILES | IHMA599644 K. pneumoniae MITC95 VIM [1] [µM] | CLB30016 E. coli MITC95 NDM [2] [µM] | CL5741 S. marcescens MITC95 IMP [3] [µM] | IC50 (NDM-1) [nM] | MB9799 MITC95 P. aeruginosa uM Efflux Mutant [4] [µM] | IC50 (IMP-1) [nM] | IC50 (VIM-1) [nM] | IC50 (VIM-2) [nM] | MB9798 MITC95 P. aeruginosa uM Efflux WT [5] [µM] | Efflux ratio [5]
1 | NC[C@@H](O)CNS(=O)(=O)c1ccc(N2CCC(C3COC(=O)N3)CC2)c(-c2nn[nH]n2)c1S(N)(=O)=O (stereo partly drawn) [Example 177, N1-((R)-3-amino-2-hydroxypropyl)-4-(4-(2-oxooxazolidin-4-yl)piperidin-1-yl)-3-(2H-tetrazol-5-yl)benzene-1,2-disulfonamide] | 6.25 | 6.25 | 3.13 | 0.57 | 1.56 | 0.19 | 0.15 | 0.66 | 1.56 | 1.00
2 | NS(=O)(=O)c1c(S(=O)(=O)N[C@@H]2CCNC2)ccc(N2CCCCC(O)C2)c1-c1nnn[nH]1 (stereo partly drawn) [Example 104, 4-(3-hydroxyazepan-1-yl)-N1-[(3R)-pyrrolidin-3-yl]-3-(1H-tetrazol-5-yl)benzene-1,2-disulfonamide] | 3.13 | 3.13 | 3.13 | 0.68 | 1.56 | 2.06 | 0.21 | 0.65 | 3.13 | 2.00
3 | NS(=O)(=O)c1c(S(=O)(=O)C2CNC2)ccc(N2CC[C@H](CO)[C@H](F)C2)c1-c1nnn[nH]1 [Example 61, 6-(azetidin-3-ylsulfonyl)-3-[(3S,4R)-3-fluoro-4-(hydroxymethyl)piperidin-1-yl]-2-(1H-tetrazol-5-yl)benzenesulfonamide] | 6.25 | 1.56 | 3.13 | 0.9 | 1.56 | 1.28 | 0.44 | 2.12 | 6.25 | 4.00
4 | NC[C@@H](O)CNS(=O)(=O)c1ccc(N2CCC(c3ncc[nH]3)CC2)c(-c2nn[nH]n2)c1S(N)(=O)=O [Example 201, (R)-4-(4-(1H-imidazol-2-yl)piperidin-1-yl)-N1-(3-amino-2-hydroxypropyl)-3-(2H-tetrazol-5-yl)benzene-1,2-disulfonamide] | 1.56 | 0.39 | 0.78 | 1.83 | 0.78 | 0.77 | 0.26 | 0.64 | 1.56 | 2.00
5 | NC(=O)[C@@H]1CN(c2ccc(S(=O)(=O)N[C@@H]3CCNC3)c(S(N)(=O)=O)c2-c2nn[nH]n2)CCN1 [Example 196, (S)-4-(4-(N—((R)-pyrrolidin-3-yl)sulfamoyl)-3-sulfamoyl-2-(2H-tetrazol-5-yl)phenyl)piperazine-2-carboxamide] | 1.17 | 0.29 | 0.20 | 0.72 | 0.78 | 3.26 | 0.44 | 1.7 | 2.34 | 3.00
6 | CC1(O)CCN(c2ccc(S(=O)(=O)N[C@@H]3CCNC3)c(S(N)(=O)=O)c2-c2nnn[nH]2)CC1 [Example 71, 4-(4-hydroxy-4-methylpiperidin-1-yl)-N1-[(3R)-pyrrolidin-3-yl]-3-(1H-tetrazol-5-yl)benzene-1,2-disulfonamide] | 6.25 | 3.13 | 3.13 | 0.26 | 1.56 | 0.7 | 0.53 | 1.69 | 1.56 | 1.00
7 | NS(=O)(=O)c1c(S(=O)(=O)N[C@@H]2CCNC2)ccc(NC2CCOCC2)c1-c1nnn[nH]1 [Example 66, N1-[(3R)-pyrrolidin-3-yl]-4-(tetrahydro-2H-pyran-4-ylamino)-3-(1H-tetrazol-5-yl)benzene-1,2-disulfonamide] | 6.25 | 6.25 | 3.13 | 0.62 | 1.56 | 4.48 | 1.76 | 3.7 | 25.00 | 15.99
8 | NCC=C1CCN(c2ccc(S(=O)(=O)NC[C@H](O)CN)c(S(N)(=O)=O)c2-c2nn[nH]n2)CC1 [Example 204, (R)—N1-(3-amino-2-hydroxypropyl)-4-(4-(2-aminoethylidene)piperidin-1-yl)-3-(2H-tetrazol-5-yl)benzene-1,2-disulfonamide] | 1.56 | 0.78 | 1.56 | 0.97 | 0.78 | 1.55 | 0.16 | 3.44 | 0.78 | 1.00
9 | NC[C@@H](O)CNS(=O)(=O)c1ccc(N2CC[C@H](CN)C2)c(-c2nn[nH]n2)c1S(N)(=O)=O [Example 124, N1-((R)-3-amino-2-hydroxypropyl)-4-((R)-3-(aminomethyl)pyrrolidin-1-yl)-3-(2H-tetrazol-5-yl)benzene-1,2-disulfonamide] | 0.78 | 0.39 | 0.78 | – | 1.56 | 23.1 | 3.18 | 37.2 | 3.13 | 2.00
10 | NCC1CCN(c2ccc(S(=O)(=O)N[C@@H]3CCNC3)c(S(N)(=O)=O)c2-c2nn[nH]n2)CCN1 (some centres unmarked) [Example 163] | 1.56 | 0.39 | 1.56 | – | 3.13 | 49 | 0.74 | 52.9 | 6.25 | 2.00
